Data published in the supplement of paper PMC10307832.

How the values were obtained:
Assay in all cases: relative viability (nuclei count vs DMSO), 5 days (fraction); higher = more cells survive
Ibrutinib + Pictilisib = compound: C=CC(=O)N1CCC[C@@H](n2nc(-c3ccc(Oc4ccccc4)cc3)c3c(N)ncnc32)C1 [Ibrutinib] + CS(=O)(=O)N1CCN(Cc2cc3nc(-c4cccc5[nH]ncc45)nc(N4CCOCC4)c3s2)CC1 [Pictilisib] (partner 1 µM)
Method in brief: (§1)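 Relative viability equals treated-well nuclei counts divided by vehicle-well nuclei counts. Counts came from 4× images of lung cancer cell lines grown in 1536-well plates for 5 days after pin-tool dosing on the day after seeding. Dosing used one drug alone or a fixed anchor-drug dose plus five library-drug doses (not always all listed) in √10 steps, and values are medians of duplicate plates.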

Ibrutinib + Olaparib = compound: C=CC(=O)N1CCC[C@@H](n2nc(-c3ccc(Oc4ccccc4)cc3)c3c(N)ncnc32)C1 [Ibrutinib] + O=C(c1cc(Cc2n[nH]c(=O)c3ccccc23)ccc1F)N1CCN(C(=O)C2CC2)CC1 [Olaparib] (partner 8 µM)
Method in brief: as §1

BMX-IN-1 + Phenformin = compound: C=CC(=O)Nc1cc(-n2c(=O)ccc3cnc4ccc(-c5ccc(NS(C)(=O)=O)cc5)cc4c32)ccc1C [BMX-IN-1] + N=C(N)NC(=N)NCCc1ccccc1 [Phenformin] (partner 250 µM)
Method in brief: as §1

BMX-IN-1 + Olaparib = compound: C=CC(=O)Nc1cc(-n2c(=O)ccc3cnc4ccc(-c5ccc(NS(C)(=O)=O)cc5)cc4c32)ccc1C [BMX-IN-1] + O=C(c1cc(Cc2n[nH]c(=O)c3ccccc23)ccc1F)N1CCN(C(=O)C2CC2)CC1 [Olaparib] (partner 8 µM)
Method in brief: as §1

Row | Cell Line | relative viability (Ibrutinib + Pictilisib; first compound 0.01581 µM) | relative viability (Ibrutinib + Pictilisib; first compound 0.05 µM) | relative viability (Ibrutinib + Pictilisib; first compound 0.1581 µM) | relative viability (Ibrutinib + Pictilisib; first compound 0.5 µM) | relative viability (Ibrutinib + Olaparib; first compound 0.005 µM) | relative viability (Ibrutinib + Olaparib; first compound 0.01581 µM) | relative viability (Ibrutinib + Olaparib; first compound 0.05 µM) | relative viability (Ibrutinib + Olaparib; first compound 0.1581 µM) | relative viability (Ibrutinib + Olaparib; first compound 0.5 µM) | relative viability (BMX-IN-1 + Phenformin; first compound 0.02 µM) | relative viability (BMX-IN-1 + Phenformin; first compound 0.2 µM) | relative viability (BMX-IN-1 + Phenformin; first compound 0.6325 µM) | relative viability (BMX-IN-1 + Phenformin; first compound 2 µM) | relative viability (BMX-IN-1 + Olaparib; first compound 0.02 µM) | relative viability (BMX-IN-1 + Olaparib; first compound 0.2 µM) | relative viability (BMX-IN-1 + Olaparib; first compound 0.6325 µM) | relative viability (BMX-IN-1 + Olaparib; first compound 2 µM) | relative viability (Ibrutinib + Pictilisib; first compound 0.005 µM)
1 | HCC-366 | 0.125 | 0.141 | 0.124 | 0.14 | 0.401 | 0.33 | 0.357 | 0.403 | 0.381 | 0.503 | 0.625 | 0.639 | 0.603 | 0.416 | 0.406 | 0.442 | 0.361 | –
2 | HCC-827 | 0.909 | 1.02 | 1.08 | 0.458 | 0.699 | 0.667 | 0.568 | 0.681 | 0.216 | 0.342 | 0.42 | 0.4 | 0.421 | 0.597 | 0.635 | 0.652 | 0.629 | 0.916
3 | HOP-62 | 0.506 | 0.67 | 0.626 | 0.877 | 0.549 | 0.387 | 0.504 | 0.628 | 0.381 | 0.567 | 0.869 | 0.752 | 0.772 | 0.403 | 0.485 | 0.33 | 0.379 | 0.379
4 | IA-LM | 0.231 | 0.312 | 0.411 | 0.22 | 0.881 | 0.891 | 0.797 | 0.936 | 1.04 | – | – | – | – | 0.871 | 0.843 | 0.938 | 0.94 | 0.203
5 | LC-2-ad | 0.19 | 0.53 | 0.525 | 0.299 | 0.802 | 0.719 | 0.859 | 0.741 | 0.739 | 0.553 | 0.555 | 0.722 | 0.617 | 0.829 | 0.848 | 0.674 | 0.733 | 0.335
6 | LCLC-97TM1 | 0.203 | 0.263 | 0.156 | 0.18 | 0.383 | 0.334 | 0.517 | 0.498 | 0.389 | 0.383 | 0.455 | 0.503 | 0.471 | 0.383 | 0.597 | 0.413 | 0.367 | 0.114
7 | LCLC-103H | 0.535 | 0.557 | 0.517 | 0.653 | 0.769 | 0.744 | – | 0.739 | 0.758 | 0.304 | 0.389 | 0.319 | 0.317 | 0.883 | 0.886 | 0.834 | 0.741 | 0.72
8 | LK-2 | 0.472 | 0.532 | 0.494 | 0.488 | 0.633 | 0.691 | 0.715 | 0.628 | 0.425 | 0.487 | 0.505 | 0.473 | 0.548 | 0.799 | 0.69 | 0.775 | 0.902 | –
9 | LOU-NH91 | 0.475 | 0.512 | 0.487 | 0.487 | 0.836 | 0.751 | 0.798 | 0.931 | 0.692 | 0.411 | – | 0.882 | 0.704 | – | 0.978 | 0.946 | 0.862 | 0.451
10 | LU99A | 0.34 | 0.355 | 0.324 | 0.336 | 0.254 | 0.272 | 0.285 | 0.291 | 0.25 | 0.817 | 0.811 | 1.06 | 0.759 | 0.25 | 0.259 | 0.265 | 0.229 | 0.274
11 | LXF-289 | 0.724 | 0.802 | 0.794 | 0.758 | 1.16 | 0.994 | 1.01 | 1.03 | 1.02 | 0.481 | 0.521 | 0.538 | 0.536 | 1.32 | 1.19 | 1.12 | 1.14 | 0.733
12 | NCI-H23 | 0.458 | 0.562 | 0.391 | 0.395 | 0.335 | 0.355 | 0.383 | 0.41 | 0.311 | 0.724 | 0.956 | 0.828 | 0.838 | 0.304 | 0.415 | 0.312 | 0.229 | 0.319
13 | NCI-H322M | 0.562 | 0.597 | 0.374 | 0.467 | 0.766 | 0.768 | 0.775 | 0.725 | 0.659 | 0.867 | 0.821 | 0.795 | 0.791 | 0.781 | 0.836 | 0.77 | 0.72 | 0.431
14 | NCI-H522 | – | – | – | – | 0.587 | 0.605 | 0.653 | 0.644 | 0.573 | 0.77 | 0.64 | 0.669 | 0.635 | 0.656 | 0.689 | 0.66 | 0.601 | –
15 | NCI-H1299 | 0.555 | 0.773 | 0.699 | 0.854 | 1 | 0.964 | 0.978 | 0.98 | 0.924 | – | – | – | – | 1.05 | 0.978 | 0.992 | 1.03 | 0.571
16 | NCI-H1563 | 0.635 | 0.677 | 0.607 | 0.602 | – | – | – | – | – | 0.664 | 0.644 | 0.648 | 0.642 | – | – | – | – | 0.663
17 | NCI-H1623 | – | – | – | – | – | – | – | – | – | 0.527 | 0.676 | 0.585 | 0.601 | – | – | – | – | –
18 | NCI-H1648 | – | – | – | – | 0.626 | 0.552 | 0.653 | 0.766 | 0.481 | – | – | – | – | 0.994 | 0.849 | 0.958 | 0.925 | –
19 | NCI-H1703 | 0.233 | 0.205 | 0.241 | 0.222 | 0.317 | 0.289 | 0.449 | 0.4 | 0.327 | – | – | – | – | 0.486 | 0.368 | 0.284 | 0.336 | –
20 | NCI-H2342 | – | – | – | – | 0.422 | 0.413 | 0.438 | 0.457 | 0.268 | 0.651 | 0.7 | 0.55 | 0.617 | 0.44 | 0.446 | 0.473 | 0.43 | –
21 | SW 900 | – | – | – | – | 0.886 | 0.694 | 0.832 | 1.02 | 0.752 | 0.545 | 0.82 | 0.614 | 0.543 | 1.15 | 0.938 | 0.819 | 0.782 | –
